These compounds were tested against Neurogenic locus notch homolog protein 1 (Homo sapiens, UniProt P46531) (assay: Inhibition of human Notch1 expressed in HEK293 cells coexpressing luciferase reporter measured after 20 hrs by steady-glo chemiluminescence assay).
Neurogenic locus notch homolog protein 1, sequence (P46531 whole entry): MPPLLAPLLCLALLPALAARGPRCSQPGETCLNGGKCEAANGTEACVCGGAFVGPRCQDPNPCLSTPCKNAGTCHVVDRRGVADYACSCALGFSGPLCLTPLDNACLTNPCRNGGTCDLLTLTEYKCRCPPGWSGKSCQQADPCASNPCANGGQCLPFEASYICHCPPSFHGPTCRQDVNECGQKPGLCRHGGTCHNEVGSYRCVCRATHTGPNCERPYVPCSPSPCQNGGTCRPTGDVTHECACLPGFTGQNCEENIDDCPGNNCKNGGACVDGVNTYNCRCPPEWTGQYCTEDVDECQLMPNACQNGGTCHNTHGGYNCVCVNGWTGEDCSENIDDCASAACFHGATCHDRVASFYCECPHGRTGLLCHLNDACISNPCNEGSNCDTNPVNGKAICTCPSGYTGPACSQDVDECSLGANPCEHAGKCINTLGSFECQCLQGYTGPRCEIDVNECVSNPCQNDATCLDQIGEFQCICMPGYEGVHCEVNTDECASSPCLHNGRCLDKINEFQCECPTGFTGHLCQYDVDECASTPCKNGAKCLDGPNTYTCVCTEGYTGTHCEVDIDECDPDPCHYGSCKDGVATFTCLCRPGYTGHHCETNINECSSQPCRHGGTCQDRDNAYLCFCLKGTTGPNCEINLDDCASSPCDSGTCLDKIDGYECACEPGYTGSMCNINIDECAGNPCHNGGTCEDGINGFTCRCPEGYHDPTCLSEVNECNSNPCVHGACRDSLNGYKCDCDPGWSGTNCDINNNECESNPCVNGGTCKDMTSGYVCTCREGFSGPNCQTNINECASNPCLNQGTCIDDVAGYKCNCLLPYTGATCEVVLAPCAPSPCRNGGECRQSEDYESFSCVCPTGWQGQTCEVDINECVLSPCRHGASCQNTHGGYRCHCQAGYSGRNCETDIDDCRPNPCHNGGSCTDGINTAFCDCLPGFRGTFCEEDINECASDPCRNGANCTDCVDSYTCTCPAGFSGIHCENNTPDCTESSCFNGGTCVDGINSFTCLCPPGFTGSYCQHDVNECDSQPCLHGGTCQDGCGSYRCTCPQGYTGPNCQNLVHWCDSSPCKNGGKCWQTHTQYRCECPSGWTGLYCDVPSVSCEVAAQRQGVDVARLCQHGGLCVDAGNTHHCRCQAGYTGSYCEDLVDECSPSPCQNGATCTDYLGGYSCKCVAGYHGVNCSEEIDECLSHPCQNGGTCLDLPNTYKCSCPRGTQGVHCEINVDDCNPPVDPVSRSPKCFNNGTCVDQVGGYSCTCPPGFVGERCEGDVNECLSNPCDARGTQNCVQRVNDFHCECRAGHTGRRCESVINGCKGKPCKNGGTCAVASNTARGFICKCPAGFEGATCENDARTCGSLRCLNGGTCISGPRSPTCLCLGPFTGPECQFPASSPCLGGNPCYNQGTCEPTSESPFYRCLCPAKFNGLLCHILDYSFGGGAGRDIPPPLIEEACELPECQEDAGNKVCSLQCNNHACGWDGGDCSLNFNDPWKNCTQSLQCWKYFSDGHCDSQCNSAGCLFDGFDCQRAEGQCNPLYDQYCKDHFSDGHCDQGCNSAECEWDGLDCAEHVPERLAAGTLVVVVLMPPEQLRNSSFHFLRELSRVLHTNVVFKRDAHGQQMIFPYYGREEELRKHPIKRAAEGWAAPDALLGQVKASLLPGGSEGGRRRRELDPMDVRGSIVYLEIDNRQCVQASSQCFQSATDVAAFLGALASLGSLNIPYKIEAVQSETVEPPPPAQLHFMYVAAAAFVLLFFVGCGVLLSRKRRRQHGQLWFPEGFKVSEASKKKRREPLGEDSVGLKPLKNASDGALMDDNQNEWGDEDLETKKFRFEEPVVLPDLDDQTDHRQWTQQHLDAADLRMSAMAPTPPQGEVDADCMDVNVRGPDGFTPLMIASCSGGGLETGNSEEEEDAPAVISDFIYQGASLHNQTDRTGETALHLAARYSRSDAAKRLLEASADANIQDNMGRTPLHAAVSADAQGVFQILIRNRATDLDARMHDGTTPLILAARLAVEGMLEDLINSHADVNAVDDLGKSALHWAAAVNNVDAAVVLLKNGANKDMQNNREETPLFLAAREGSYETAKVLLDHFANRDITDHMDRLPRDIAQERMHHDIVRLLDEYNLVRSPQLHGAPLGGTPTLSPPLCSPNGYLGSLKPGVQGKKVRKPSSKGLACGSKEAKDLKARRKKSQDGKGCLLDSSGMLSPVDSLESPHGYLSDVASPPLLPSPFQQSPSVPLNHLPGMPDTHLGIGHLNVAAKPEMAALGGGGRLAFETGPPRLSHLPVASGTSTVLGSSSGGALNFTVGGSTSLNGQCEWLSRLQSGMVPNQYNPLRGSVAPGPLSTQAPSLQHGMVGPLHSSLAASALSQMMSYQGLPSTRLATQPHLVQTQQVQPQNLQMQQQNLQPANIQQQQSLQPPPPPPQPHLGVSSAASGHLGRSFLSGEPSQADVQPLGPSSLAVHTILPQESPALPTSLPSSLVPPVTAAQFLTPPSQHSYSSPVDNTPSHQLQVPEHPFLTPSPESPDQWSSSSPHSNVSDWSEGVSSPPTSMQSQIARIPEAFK

Row | IC50 [µM] | SMILES
1 | > 10 | Cc1cc(N2C[C@H]3CC[C@@H](C2)[C@@H]3Nc2nc3c(OCC(F)F)ccc(C(F)(F)F)n3n2)ncn1
2 | > 10 | Cc1nnc(N2C[C@H]3CC[C@@H](C2)[C@@H]3Nc2nc3c(O[C@@H](C)C(F)(F)F)ccc(C(F)(F)F)n3n2)o1
3 | > 10 | Cc1noc(N2C[C@H]3CC[C@@H](C2)[C@@H]3Nc2nc3c(OCC(F)(F)F)ccc(C(F)(F)F)n3n2)n1
